Measured values taken from PubChem BioAssay AID1963835 (Molecular Pharmacology Branch, DTP, NCI, 2024).

Tested on: 699152-130-R-J1-PDC complex spheroid viability
Assay: Anticancer human tumor 699152-130-R-J1-PDC patient-derived pancreatic carcinoma cell line growth inhibition [POLQ]
Conditions: for IC50: curve of first compound; for viability, T/C: stronger effect = lower value; active means viability on the fitted dose curve at most 10% of control; inactive means the rest
Procedure, shortened: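 PDC + HUVEC + MSC complex spheroids; POLQ inhibitors ± partner drugs; top conc. at/near clinical Cmax, else 10 microM (SN-38 1 microM), half-log dilutions; 37 degrees C, 5% CO2.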

[1] = second compound 0.0316 µM, first compound 0.0316 µM
[2] = second compound 0.0316 µM, first compound 0.1 µM
[3] = second compound 0.0316 µM, first compound 0.316 µM
[4] = second compound 0.0316 µM, first compound 1 µM
[5] = second compound 0.0316 µM, first compound 3.16 µM
[6] = second compound 0.0316 µM, first compound 10 µM
[7] = second compound 0.1 µM, first compound 0.0316 µM
[8] = second compound 0.1 µM, first compound 0.1 µM
[9] = second compound 0.1 µM, first compound 0.316 µM
[10] = second compound 0.1 µM, first compound 1 µM
[11] = second compound 0.1 µM, first compound 3.16 µM
[12] = second compound 0.1 µM, first compound 10 µM
[13] = second compound 0.316 µM, first compound 0.0316 µM
[14] = second compound 0.316 µM, first compound 0.1 µM
[15] = second compound 0.316 µM, first compound 0.316 µM
[16] = second compound 0.316 µM, first compound 1 µM
[17] = second compound 0.316 µM, first compound 3.16 µM
[18] = second compound 0.316 µM, first compound 10 µM
[19] = second compound 1 µM, first compound 0.0316 µM
[20] = second compound 1 µM, first compound 0.1 µM
[21] = second compound 1 µM, first compound 0.316 µM
[22] = second compound 1 µM, first compound 1 µM
[23] = second compound 1 µM, first compound 3.16 µM
[24] = second compound 1 µM, first compound 10 µM
[25] = second compound 3.16 µM, first compound 0.0316 µM
[26] = second compound 3.16 µM, first compound 0.1 µM
[27] = second compound 3.16 µM, first compound 0.316 µM
[28] = second compound 3.16 µM, first compound 1 µM
[29] = second compound 3.16 µM, first compound 3.16 µM
[30] = second compound 3.16 µM, first compound 10 µM
[31] = second compound 10 µM, first compound 0.0316 µM
[32] = second compound 10 µM, first compound 0.1 µM
[33] = second compound 10 µM, first compound 0.316 µM
[34] = second compound 10 µM, first compound 1 µM
[35] = second compound 10 µM, first compound 3.16 µM
[36] = second compound 10 µM, first compound 10 µM
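Further: spheroids exposed to agents for 7 days before viability reading.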
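Wherever viability, T/C is given: percent of DMSO vehicle control viability so 100% = vehicle and 0% = no viable signal.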

COc1ccc([C@@H](O)c2cc(-c3ncnc4cc(N5CCOCC5)ccc34)c(F)cc2Cl)nn1 + Nc1ccc(C#CCN(C(=O)Cc2ncc(C(F)(F)F)cc2C(F)(F)F)c2ccc(F)cc2)nn1
3.01 µM: IC50 (second compound 0.0316 µM)
inactive: viability, T/C [1] 89.7% | viability, T/C [2] 95.3% | viability, T/C [3] 82.5% | viability, T/C [4] 78.8% | viability, T/C [5] 48.1% | viability, T/C [6] 19.2% | viability, T/C [7] 95.2% | viability, T/C [8] 93.3% | viability, T/C [9] 91.1% | viability, T/C [10] 76.4% | viability, T/C [11] 47.9% | viability, T/C [12] 25.5% | viability, T/C [13] 114% | viability, T/C [14] 93.2% | viability, T/C [15] 92.5% | viability, T/C [16] 70.9% | viability, T/C [17] 50.2% | viability, T/C [18] 19.3% | viability, T/C [19] 99.5% | viability, T/C [20] 100% | viability, T/C [21] 96.7% | viability, T/C [22] 85.9% | viability, T/C [23] 51.8% | viability, T/C [24] 22.5% | viability, T/C [25] 101% | viability, T/C [26] 92.6% | viability, T/C [27] 90.5% | viability, T/C [28] 83.4% | viability, T/C [29] 52.2% | viability, T/C [30] 21.8% | viability, T/C [31] 116% | viability, T/C [32] 105% | viability, T/C [33] 104% | viability, T/C [34] 84% | viability, T/C [35] 54.9% | viability, T/C [36] 26%
3.54 µM: IC50 (second compound 3.16 µM)
2.89 µM: IC50 (second compound 0.1 µM)
3.39 µM: IC50 (second compound 1 µM)
3.89 µM: IC50 (second compound 10 µM)
3.05 µM: IC50 (second compound 0.316 µM)

COc1cccc(OCCCN)c1-c1cc(Nc2cnc(C#N)cn2)n[nH]1 + COC1C(OC(N)=O)C(O)C(Oc2ccc3c(O)c(NC(=O)c4ccc(O)c(CC=C(C)C)c4)c(=O)oc3c2C)OC1(C)C
0.524 µM: IC50 (second compound 0.1 µM)
0.297 µM: IC50 (second compound 1 µM)
> 1 µM: IC50 (second compound 3.16 µM) | IC50 (second compound 10 µM)
0.495 µM: IC50 (second compound 0.316 µM)
0.256 µM: IC50 (second compound 0.0316 µM)
inactive: viability, T/C (second compound 0.0316 µM, first compound 0.00316 µM) 92.4% | viability, T/C (second compound 0.0316 µM, first compound 0.01 µM) 91.4% | viability, T/C [1] 57.9% | viability, T/C [2] 63% | viability, T/C [3] 49.7% | viability, T/C [4] 43% | viability, T/C (second compound 0.1 µM, first compound 0.00316 µM) 96.8% | viability, T/C (second compound 0.1 µM, first compound 0.01 µM) 89.2% | viability, T/C [7] 70.3% | viability, T/C [8] 58.1% | viability, T/C [9] 50.8% | viability, T/C [10] 48.6% | viability, T/C (second compound 0.316 µM, first compound 0.00316 µM) 107% | viability, T/C (second compound 0.316 µM, first compound 0.01 µM) 83.1% | viability, T/C [13] 67.3% | viability, T/C [14] 55.2% | viability, T/C [15] 55% | viability, T/C [16] 46.1% | viability, T/C (second compound 1 µM, first compound 0.00316 µM) 93.7% | viability, T/C (second compound 1 µM, first compound 0.01 µM) 83.2% | viability, T/C [19] 69.2% | viability, T/C [20] 52.3% | viability, T/C [21] 48.4% | viability, T/C [22] 50.8% | viability, T/C (second compound 3.16 µM, first compound 0.00316 µM) 107% | viability, T/C (second compound 3.16 µM, first compound 0.01 µM) 78.2% | viability, T/C [25] 60.7% | viability, T/C [26] 54.8% | viability, T/C [27] 57.5% | viability, T/C [28] 48.8% | viability, T/C (second compound 10 µM, first compound 0.00316 µM) 94.8% | viability, T/C (second compound 10 µM, first compound 0.01 µM) 90.8% | viability, T/C [31] 62.3% | viability, T/C [32] 60.3% | viability, T/C [33] 55% | viability, T/C [34] 46.3%

CNCc1ccc(-c2[nH]c3cc(F)cc4c3c2CCNC4=O)cc1 + Nc1ccc(C#CCN(C(=O)Cc2ncc(C(F)(F)F)cc2C(F)(F)F)c2ccc(F)cc2)nn1
inactive: viability, T/C [1] 103% | viability, T/C [2] 98.8% | viability, T/C [3] 95.9% | viability, T/C [4] 115% | viability, T/C [5] 115% | viability, T/C [6] 123% | viability, T/C [7] 95.8% | viability, T/C [8] 104% | viability, T/C [9] 100% | viability, T/C [10] 105% | viability, T/C [11] 113% | viability, T/C [12] 118% | viability, T/C [13] 85.2% | viability, T/C [14] 109% | viability, T/C [15] 105% | viability, T/C [16] 102% | viability, T/C [17] 127% | viability, T/C [18] 132% | viability, T/C [19] 94.9% | viability, T/C [20] 90% | viability, T/C [21] 100% | viability, T/C [22] 94.6% | viability, T/C [23] 112% | viability, T/C [24] 132% | viability, T/C [25] 105% | viability, T/C [26] 93.6% | viability, T/C [27] 109% | viability, T/C [28] 104% | viability, T/C [29] 105% | viability, T/C [30] 122% | viability, T/C [31] 99.7% | viability, T/C [32] 104% | viability, T/C [33] 107% | viability, T/C [34] 107% | viability, T/C [35] 130% | viability, T/C [36] 120%
> 10 µM: IC50 (second compound 0.0316 µM) | IC50 (second compound 0.1 µM) | IC50 (second compound 0.316 µM) | IC50 (second compound 1 µM) | IC50 (second compound 3.16 µM) | IC50 (second compound 10 µM)
